Test results as given in patent publication US20110178104A1, “Anti-Heparin Compounds” (POLYMEDIX INC., priority 2010, published 2011).
pEC50: −log10 of the molar value. Where “and” joins values, the source holds several entries; their conditions need not be identical. Equal values may be shown once.

Tests used:
tinzaparin = experiment: FXa amidolytic assay (Example 10), tinzaparin; settings: read-out: Tinzap FXa EC50; tinzaparin 0.1 ug/ml; human antithrombin, bovine Factor Xa
Procedure: (§1) Two μl of test agent are added (range between 0.01 and 23 ug/ml) and incubated for 5 minutes at 23° C. Bovine Factor Xa was added to a final concentration of 0.636 nkat/mL and incubated for a further 10 minutes at 23° C.

Unfractionated heparin = experiment: aPTT clotting assay, UFH 0.4 U/mL in plasma (Example 10); type: biochemical; settings: unfractionated heparin 0.4 U/mL in plasma; aPTT clotting
Procedure: aPTT clotting Assay: Unfractionated heparin was mixed with plasma at a final concentration of 0.4 U/mL (or concentration which increases aPTT time to between 120 and 300 seconds). […] The ACL Elite Hemostasis analyzer (Beckman Coulter™) was used to add aPTT reagent (HemosIL SynthASil) to supplemented plasma. Clotting was initiated by addition of CaCl2 and time to clot was recorded.

fondaparinux = experiment: FXa amidolytic assay (Example 10), fondaparinux; settings: read-out: Fondap FXa EC50; fondaparinux 0.02 μg/mL; human antithrombin, bovine Factor Xa
Procedure: as §1

enoxaparin = experiment: FXa amidolytic assay (Example 10), enoxaparin; settings: read-out: Enox FXa EC50; enoxaparin 0.1 ug/ml; human antithrombin, bovine Factor Xa
Procedure: as §1

SMILES	pEC50 (tinzaparin)	pEC50 (Unfractionated heparin)	pEC50 (fondaparinux)	pEC50 (enoxaparin)
COc1ccc(NC(=O)[C@H](CCCNC(=N)N)NC(=O)c2cc(NC(=O)[C@H](CCCNC(=N)N)NC(=O)c3cc(NC(=O)[C@H](C)NC(=O)CCCCNC(=N)N)ccc3OC)ccc2OC)cc1C(N)=O [Compound 224]	6.10	5.14	5.35	5.99
COc1cc(OC)c(C(=O)N[C@H]2CC[C@H](NC(=O)c3cc(C(=O)NCCN(C)C)c(OCCCCCN)cc3OCCCCCN)CC2)cc1C(=O)NCCN(C)C [Compound 228]	< 5.30	5.96	< 5.00	6.55
[2H]C(C([2H])C([2H])([2H])CN)[C@H](N)C(=O)Nc1ccc(OC)c(C(=O)N[C@@H](CCCCN)C(=O)Nc2ccc(OC)c(C(=O)N[C@@H](CCCCN)C(=O)Nc3ccc(OC)c(C(=O)N[C@@H](CCCCN)C(=O)Nc4ccc(OC)c(C(N)=O)c4)c3)c2)c1 (stereo partly drawn) [Compound 230]	6.83	5.56	5.31	6.60
COc1ccc(NC(=O)[C@H](CCCCN)NC(=O)c2cc(NC(=O)[C@H](CCCCN)NC(=O)c3cc(NC(=O)[C@H](CCCCN)NC(=O)c4cc(NC(=O)[C@H](N)CCCCN)ccc4OC)ccc3OC)ccc2OC)cc1C(N)=O [Compound 231]	7.00	5.64	5.45	6.72
COc1ccc(NC(=O)[C@H](C)NC(=O)c2cc(NC(=O)[C@H](CCCCN)NC(=O)c3cc(NC(=O)[C@H](CCCCN)NC(=O)c4cc(NC(=O)[C@@H](N)CCCCN)ccc4OC)ccc3OC)ccc2OC)cc1C(N)=O [Compound 232]	6.27	5.49	< 5.00	6.06
COc1ccc(NC(=O)[C@H](CCCCN)NC(=O)c2cc(NC(=O)[C@H](CCCCN)NC(=O)c3cc(NC(=O)[C@H](CCCCN)NC(=O)c4cc(NC(=O)[C@H](C)N)ccc4OC)ccc3OC)ccc2OC)cc1C(N)=O [Compound 233]	6.57	5.80	5.46	6.42
COc1ccc(NC(=O)[C@H](CCCNC(=N)N)NC(=O)c2cc(NC(=O)[C@@H](N)CCCNC(=N)N)ccc2OC)cc1C(=O)N[C@@H](CCCNC(=N)N)C(=O)Nc1ccc(OC)c(C(=O)N[C@@H](CCCNC(=N)N)C(=O)Nc2ccc(OC)c(C(=O)N3CCC[C@H]3C(N)=O)c2)c1 [Compound 234]	6.35	< 5.00	< 5.00	5.99
CSc1ccc(NC(=O)[C@H](CCCNC(=N)N)NC(=O)c2cc(NC(=O)[C@H](CCCNC(=N)N)NC(=O)c3cc(NC(=O)[C@H](CCCNC(=N)N)NC(=O)c4cc(NC(=O)[C@@H](N)CCCNC(=N)N)ccc4SC)ccc3SC)ccc2SC)cc1C(N)=O [Compound 235]	6.36	< 5.00	4.97	6.30
COc1ccc(NC(=O)[C@H](CCCCN)NC(=O)c2cc(NC(=O)[C@H](CCCCN)NC(=O)c3cc(NC(=O)[C@H](CCCCN)NC(=O)c4c[nH]c5ccccc45)ccc3OC)ccc2OC)cc1C(N)=O [Compound 238]	6.24	5.27	5.73	6.08
COc1ccc(NC(=O)[C@H](CCCCN)NC(=O)c2cc(NC(=O)[C@H](CCCCN)NC(=O)c3cc(NC(=O)[C@H](CCCCN)NC(=O)c4cc(NC(=O)[C@@H](N)CCCCN)cc(C(F)(F)F)c4)ccc3OC)ccc2OC)cc1C(N)=O [Compound 239]	6.91	5.37	5.40	6.62
COc1ccc(NC(=O)[C@H](CCCCN)NC(=O)c2cc(NC(=O)[C@H](CCCCN)NC(=O)c3cc(NC(=O)[C@H](CCCCN)NC(=O)c4cc(N)cc(C(F)(F)F)c4)ccc3OC)ccc2OC)cc1C(N)=O [Compound 240]	6.40	< 5.00	5.68	6.20
COc1ccc(NC(=O)[C@H](CCCCN)NC(=O)c2cc(NC(=O)[C@H](CCCCN)NC(=O)c3cc(NC(=O)[C@H](CCCCN)NC(=O)c4ccc(NC(=O)[C@@H](N)CCCCN)cc4)ccc3OC)ccc2OC)cc1C(N)=O [Compound 241]	6.78	5.26	< 5.00	6.37
COc1ccc(NC(=O)[C@H](CCCCN)NC(=O)c2cc(NC(=O)[C@H](CCCCN)NC(=O)c3cc(NC(=O)[C@H](CCCCN)NC(=O)c4cccc(N(C)C(=O)[C@@H](N)CCCCN)c4)ccc3OC)ccc2OC)cc1C(N)=O [Compound 242]	< 5.30	5.86	< 5.00	< 5.30
CNc1cccc(C(=O)N[C@@H](CCCCN)C(=O)Nc2ccc(OC)c(C(=O)N[C@@H](CCCCN)C(=O)Nc3ccc(OC)c(C(=O)N[C@@H](CCCCN)C(=O)Nc4ccc(OC)c(C(N)=O)c4)c3)c2)c1 [Compound 243]	6.12	5.54	5.23	5.94
COc1ccc(NC(=O)[C@H](CCCCN)NC(=O)c2cc(NC(=O)[C@H](CCCCN)NC(=O)c3cc(NC(=O)[C@H](CCCCN)NC(=O)c4ccc(NC(=O)[C@@H](N)CCCCN)cc4OC)ccc3OC)ccc2OC)cc1C(N)=O [Compound 244]	6.95	5.84	5.33	6.64
COc1ccc(NC(=O)[C@H](CCCCN)NC(=O)c2cc(NC(=O)[C@H](CCCCN)NC(=O)c3cc(NC(=O)[C@H](CCCCN)NC(=O)c4cc(NC(=O)[C@@H](N)CCCCN)ccc4SC)ccc3OC)ccc2OC)cc1C(N)=O [Compound 245]	6.93 and 6.90	5.88 and 5.84	5.40 and 5.50	6.59 and 6.65
COc1ccc(NC(=O)[C@H](CCCCN)NC(=O)c2cc(NC(=O)[C@H](CCCCN)NC(=O)c3cc(NC(=O)[C@H](CCCCN)NC(=O)c4cnc(N)s4)ccc3OC)ccc2OC)cc1C(N)=O [Compound 247]	5.87	5.59	< 5.00	5.50
COc1ccc(NC(=O)[C@H](CCCCN)NC(=O)c2cc(NC(=O)[C@H](CCCCN)NC(=O)c3cc(NC(=O)[C@H](CCCCN)NC(=O)c4cc(C(=O)NCCCCCN)c(OC)cc4OC)ccc3OC)ccc2OC)cc1C(N)=O [Compound 248]	6.80	5.68	5.74	6.68
COC(=O)c1cc(NC(=O)[C@H](CCCCN)NC(=O)c2cc(NC(=O)[C@H](CCCCN)NC(=O)c3cc(NC(=O)[C@H](CCCCN)NC(=O)c4cc(NC(=O)[C@@H](N)CCCCN)ccc4OC)ccc3OC)ccc2OC)ccc1OC [Compound 249]	6.67	5.85	4.98	6.33
COc1ccc(NC(=O)[C@H](CCCCN)NC(=O)c2cc(NC(=O)[C@H](CCCCN)NC(=O)c3cc(NC(=O)[C@H](CCCCN)NC(=O)c4cc(NC(=O)[C@@H](N)CCCCN)ccc4OC)ccc3SC)ccc2OC)cc1C(N)=O [Compound 251]	< 5.30	< 5.00	< 5.00	< 5.30
COc1ccc(NC(=O)[C@H](CCCCN)NC(=O)c2cc(NC(=O)[C@H](CCCCN)NC(=O)c3cc(NC(=O)[C@H](CCCCN)NC(=O)c4cc(NC(=O)[C@@H](N)CCCCN)ccc4OC)ccc3OC)ccc2SC)cc1C(N)=O [Compound 252]	< 5.30	< 5.00	< 5.00	< 5.30
COc1ccc(NC(=O)[C@H](CCCCN)NC(=O)c2cc(NC(=O)[C@@H](N)CCCCN)ccc2OC)cc1C(=O)N[C@@H](CCCCN)C(=O)Nc1ccc(OC)c(C(=O)N[C@@H](CCCCN)C(=O)Nc2ccc(SC)c(C(N)=O)c2)c1 [Compound 253]	6.33	5.78	< 5.00	5.97
COc1ccc(NC(=O)[C@@H](CCCNC(=N)N)NC(=O)c2cc(NC(=O)[C@@H](CCCNC(N)=O)NC(=O)c3cc(NC(=O)[C@@H](CCCNC(=N)N)NC(=O)c4cc(NC(=O)[C@H](N)CCCNC(=N)N)ccc4OC)ccc3OC)ccc2OC)cc1C(N)=O [Compound 254]	7.01	5.79	6.35	7.03
COc1ccc(NC(=O)[C@@H](CCCNC(N)=O)NC(=O)c2cc(NC(=O)[C@@H](CCCNC(=N)N)NC(=O)c3cc(NC(=O)[C@@H](CCCNC(=N)N)NC(=O)c4cc(NC(=O)[C@H](N)CCCNC(=N)N)ccc4OC)ccc3OC)ccc2OC)cc1C(N)=O [Compound 255]	6.92	5.76	6.33	6.94
COc1ccc(NC(=O)[C@H](CCCCN)NC(=O)c2cc(NC(=O)[C@H](CCCCN)NC(=O)c3cc(NC(=O)[C@H](CCCCN)NC(=O)c4cc(NC(=O)[C@@H](N)CCCNC(N)=O)ccc4OC)ccc3OC)ccc2OC)cc1C(N)=O [Compound 256]	6.82	5.84	5.60	6.63
COc1ccc(NC(=O)[C@H](CCCCN)NC(=O)c2cc(NC(=O)[C@H](CCCCN)NC(=O)c3cc(NC(=O)[C@H](CCCNC(N)=O)NC(=O)c4cc(NC(=O)[C@@H](N)CCCCN)ccc4OC)ccc3OC)ccc2OC)cc1C(N)=O [Compound 257]	6.89	5.88	5.84	6.69
COc1ccc(NC(=O)[C@H](CCCCN)NC(=O)c2cc(NC(=O)[C@H](CCCNC(N)=O)NC(=O)c3cc(NC(=O)[C@H](CCCCN)NC(=O)c4cc(NC(=O)[C@@H](N)CCCCN)ccc4OC)ccc3OC)ccc2OC)cc1C(N)=O [Compound 258]	6.88	5.82	5.81	6.70
